What follows are compounds tested against T1, Follicle Stimulating Hormone Receptor (FSHR) (Homo sapiens, UniProt P23945) (assay: HTRF cAMP agonist assay, FSHR, transiently transfected CHO-K1 cells). Conditions: CHO-K1 cells transiently expressing human FSHR, read-out: IC50 FSHR LANCE CAMP.
T1 construct: HA (N); expressed in transfected cells; host or cells: CHO-K1, transient transfection, pHM6 vector (CMV promoter)
T1 sequence (P23945 18-695): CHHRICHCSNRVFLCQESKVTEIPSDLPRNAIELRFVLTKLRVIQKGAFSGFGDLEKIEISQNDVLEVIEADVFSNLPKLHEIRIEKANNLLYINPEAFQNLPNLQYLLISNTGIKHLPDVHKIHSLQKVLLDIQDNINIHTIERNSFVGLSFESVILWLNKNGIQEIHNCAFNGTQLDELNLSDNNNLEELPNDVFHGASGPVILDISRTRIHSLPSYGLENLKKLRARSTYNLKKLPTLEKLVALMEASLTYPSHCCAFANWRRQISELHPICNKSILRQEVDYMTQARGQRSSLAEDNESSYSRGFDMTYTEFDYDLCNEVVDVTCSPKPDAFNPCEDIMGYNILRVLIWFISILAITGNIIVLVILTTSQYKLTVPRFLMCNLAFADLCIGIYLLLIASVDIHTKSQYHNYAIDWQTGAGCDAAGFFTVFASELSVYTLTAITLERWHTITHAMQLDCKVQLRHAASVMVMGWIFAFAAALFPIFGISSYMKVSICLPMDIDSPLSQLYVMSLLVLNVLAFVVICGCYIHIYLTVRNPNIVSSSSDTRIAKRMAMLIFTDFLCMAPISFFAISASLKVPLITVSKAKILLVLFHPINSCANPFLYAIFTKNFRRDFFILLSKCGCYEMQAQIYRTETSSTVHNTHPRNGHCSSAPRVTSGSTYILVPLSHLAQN
Format: cell-based

Compound | IC50 [nM]
COc1cc(C(N)=O)cc(-c2cc3c(cc2OC)CCc2c(C(=O)N(C)C(C)(C)C)nn(-c4cc(Cl)cc(Cl)c4)c2-3)n1 [Compound 11-01] | 12.5
COc1cc(C(N)=O)cc(-c2cc3c(cc2OC)COc2c(C(=O)N(C)C(C)(C)C)nn(-c4cc(Cl)cc(Cl)c4)c2-3)n1 [Compound 11-02, N-tert-butyl-8-(4-carbamoyl-6-methoxy-2-pyridyl)-1-(3,5-dichlorophenyl)-7-methoxy-N-methyl-5H-isochromeno[4,3-c]pyrazole-3-carboxamide] | 42
COc1cc(C(N)=O)cc(-c2cc3c(cc2OC)CSc2c(C(=O)N(C)C(C)(C)C)nn(-c4cc(Cl)cc(Cl)c4)c2-3)n1 [Compound 11-03, N-tert-butyl-8-(4-carbamoyl-6-methoxy-2-pyridyl)-1-(3,5-dichlorophenyl)-7-methoxy-N-methyl-5H-isothiochromeno[4,3-c]pyrazole-3-carboxamide] | 75
COc1cc2c(cc1-c1cncc(C(N)=O)c1)-c1c(c(C(=O)N3[C@H](C)CN(C)C[C@@H]3C)nn1-c1cc(Cl)cc(Cl)c1)CC2 [Compound 12-01] | 14.8
COc1cc2c(cc1-c1cncc(C(N)=O)c1)-c1c(c(C(=O)N3[C@H](C)CNC[C@@H]3C)nn1-c1cc(Cl)cc(Cl)c1)OC2 [Compound 12-02, 5-[1-(3,5-dichlorophenyl)-3-[(2R,6S)-2,6-dimethylpiperazine-1-carbonyl]-7-methoxy-5H-isochromeno[4,3-c]pyrazol-8-yl]pyridine-3-carboxamide] | 5.07
COc1cc2c(cc1-c1cncc(C(N)=O)c1)-c1c(c(C(=O)N3COCC3(C)C)nn1-c1cc(Cl)cc(Cl)c1)OC2 [Compound 12-04] | 5.09
COc1cc2c(cc1-c1cncc(C(N)=O)c1)-c1c(c(C(=O)N3[C@H](C)CNC[C@@H]3C)nn1-c1cc(Cl)cc(Cl)c1)S(=O)(=O)C2 [Compound 12-05] | 15.4
COc1cc2c(cc1-c1cncc(C(N)=O)c1)-c1c(c(C(=O)N3COCC3(C)C)nn1-c1cc(Cl)cc(Cl)c1)S(=O)(=O)C2 [Compound 12-07] | 21.2
COc1cc2c(cc1-c1cncc(C(N)=O)c1)-c1c(c(C(=O)N3COCC3(C)C)nn1-c1cc(Cl)cc(Cl)c1)CCO2 [Compound 12-11] | 26.6
COc1cc2c(cc1-c1cncc(C(N)=O)c1)-c1c(c(C(=O)N3CCNC(=O)C3(C)C)nn1-c1cc(Cl)cc(Cl)c1)S(=O)(=O)C2 [Compound 12-12] | 228
COc1cc2c(cc1-c1cncc(C(N)=O)c1)-c1c(c(C(=O)N3[C@H](C)CNC[C@@H]3C)nn1-c1cc(Cl)cc(Cl)c1)SC2 [Compound 12-13] | 4.98
COc1cc2c(cc1-c1cncc(C(N)=O)c1)-c1c(c(C(=O)N3COCC3(C)C)nn1-c1cc(Cl)cc(Cl)c1)SC2 [Compound 12-15] | 3.09
COc1cc2c(cc1-c1cncc(C(N)=O)c1)-c1c(c(C(=O)N3CCNC(=O)C3(C)C)nn1-c1cc(Cl)cc(Cl)c1)SC2 [Compound 12-16] | 20.9
CC1(C)C(=O)NCCN1C(=O)c1nn(-c2ccccn2)c2c1CCc1ccc(-c3cccnc3)cc1-2 [Compound 13-01, 3,3-dimethyl-4-[1-(2-pyridyl)-8-(3-pyridyl)-4,5-dihydrobenzo[g]indazole-3-carbonyl]piperazin-2-one] | 6740
CC1(C)C(=O)NCCN1C(=O)c1nn(-c2cc(Cl)cc(Cl)c2)c2c1CCc1ccc(-c3cncc(C(N)=O)c3)cc1-2 [Compound 15-04, 5-[1-(3,5-dichlorophenyl)-3-(2,2-dimethyl-3-oxo-piperazine-1-carbonyl)-4,5-dihydrobenzo[g]indazol-8-yl]pyridine-3-carboxamide] | 381
COc1cc2c(cc1-c1cccnc1)-c1c(c(C(=O)N3CCOCC3(C)C)nn1-c1cc(F)cc(F)c1)CO2 [Compound 15-08] | 7.32
COc1cc2c(cc1-c1ccncc1)-c1c(c(C(=O)N3CCOCC3(C)C)nn1-c1cc(F)cc(F)c1)CC2 [Compound 15-09, [1-(3,5-difluorophenyl)-7-methoxy-8-(4-pyridyl)-4,5-dihydrobenzo[g]indazol-3-yl]-(3,3-dimethylmorpholin-4-yl)methanone] | 370
COc1cc2c(cc1-c1ccc(=N)[nH]c1)-c1c(c(C(=O)N3CCOCC3(C)C)nn1-c1cc(F)cc(F)c1)CC2 [Compound 15-10] | 21.1

Next, values leading:

IC50 [nM] | Compound
66.8 | COc1cc2c(cc1-c1cncc(C(N)=O)c1)-c1c(c(C(=O)N3CCNC(=O)C3(C)C)nn1-c1cc(Cl)cc(Cl)c1)OC2 [Compound 12-18]
36.7 | COc1cc2c(cc1-c1cncc(C(N)=O)c1)-c1c(c(C(=O)N3CCNC(=O)C3(C)C)nn1-c1ccsc1)CC2 [Compound 12-23, 5-[3-(2,2-dimethyl-3-oxo-piperazine-1-carbonyl)-7-methoxy-1-(3-thienyl)-4,5-dihydrobenzo[g]indazol-8-yl]pyridine-3-carboxamide]
2130 | COc1cc2c(cc1-c1cncc(C(N)=O)c1)-c1c(c(C(=O)N3CCNC(=O)C3(C)C)nn1CC(C)C)CC2 [Compound 13-09, 5-[3-(2,2-dimethyl-3-oxo-piperazine-1-carbonyl)-1-isobutyl-7-methoxy-4,5-dihydrobenzo[g]indazol-8-yl]pyridine-3-carboxamide]
13800 | COc1cc2c(cc1-c1cncc(C(N)=O)c1)-c1c(c(C(=O)N3CCNC(=O)C3(C)C)nn1CC(C)C)CC2 [Compound 14-03]
75.8 | COc1cc2c(cc1-c1cncc(C(N)=O)c1)-c1c(c(C(=O)N3CCNC(=O)C3(C)C)nn1-c1ccccn1)CC2 [Compound 15-01, 5-[3-(2,2-dimethyl-3-oxo-piperazine-1-carbonyl)-7-methoxy-1-(2-pyridyl)-4,5-dihydrobenzo[g]indazol-8-yl]pyridine-3-carboxamide]
477 | COc1cc2c(cc1-c1cccnc1)-c1c(c(C(=O)N3CCNC(=O)C3(C)C)nn1-c1ccccn1)CC2 [Compound 15-02]
31.1 | COc1cc2c(cc1-c1cccnc1)-c1c(c(C(=O)N3CCNC(=O)C3(C)C)nn1-c1cc(Cl)cc(Cl)c1)CC2 [Compound 15-03, 4-[1-(3,5-dichlorophenyl)-7-methoxy-8-(3-pyridyl)-4,5-dihydrobenzo[g]indazole-3-carbonyl]-3,3-dimethyl-piperazin-2-one]
363 | COc1cc2c(cc1-c1cncc(C(N)=O)c1)-c1c(c(C(=O)N3CCNC(=O)C3(C)C)nn1-c1ccncn1)CC2 [Compound 15-05, 5-(3-(2,2-dimethyl-3-oxopiperazine-1-carbonyl)-7-methoxy-1-(pyrimidin-4-yl)-4,5-dihydro-1H-benzo[g]indazol-8-yl)nicotinamide]
3620 | COc1cc2c(cc1-c1cncc(C(N)=O)c1)-c1c(c(C(=O)N3CCNC(=O)C3(C)C)nn1-c1cccnn1)CC2 [Compound 15-06]

— US20260008783A1, “MODULATORS OF FSHR AND USES THEREOF” (Celmatix Inc., priority 2022, published 2026)
